Where a name gives a salt, the structure may show the parent alone.
Test system: neuronal protein extravasation
Experiment: Neuronal protein extravasation in dura after electrical stimulation of the trigeminal ganglion
Assay type: in vivo, Harlan Sprague-Dawley rats or guinea pigs
Conditions: 10 minutes before trigeminal ganglion stimulation, dose inhibiting extravasation by 50%, approximated from dose-response curve, species (rat or guinea pig) not given
Procedure: Harlan Sprague-Dawley rats (250-350 g) or guinea pigs from Charles River Laboratories (250-350 g) were anesthetized with sodium pentobarbital intraperitoneally (65 mg/kg or 45 mg/kg respectively) and placed in a stereotaxic frame (David Kopf Instruments) with the incisor bar set at -3.5 mm for rats or -4.0 mm for guinea pigs. Following a midline sagital scalp incision, two pairs of bilateral holes were drilled through the skull (6 mm posteriorly, 2.0 and 4.0 mm laterally in rats; 4 mm posteriorly and 3.2 and 5.2 mm laterally in guinea pigs, all coordinates referenced to bregma) . Pairs of stainless steel stimulating electrodes, insulated except at the tips, (Rhodes Medical Systems, Inc.) were lowered through the holes in both hemispheres to a depth of 9 mm (rats) or 10.5 mm (guinea pigs) from dura.
The femoral vein was exposed and a dose of the test compound was injected intravenously (1 mL/kg). Approximately 7 minutes later, a 50 mg/kg dose of Evans Blue, a fluorescent dye, was also injected intravenously. The Evans Blue complexed with proteins in the blood and functioned as a marker for protein extravasation. Exactly 10 minutes post-injection of the test compound, the left trigeminal ganglion was stimulated for 3 minutes at a current intensity of 1.0 mA (5 Hz, 4 msec duration) with a Model 273 potentiostat/ galvanostat (EG&G Princeton Applied Research).
Fifteen minutes following stimulation, the animals were killed by exsanguination with 40 mL of saline. The top of the skull was removed to facilitate the collection of the dural membranes. The membrane samples were removed from both hemispheres, rinsed with water, and spread flat on microscopic slides. Once dried, the tissues were coverslipped with a 70% glycerol/water solution.
A fluorescence microscope (Zeiss) equipped with a grating monochromator and a spectrophotometer was used to quantify the amount of Evans Blue dye in each sample. An excitation wavelength of approximately 535 nm was utilized and the emission intensity at 600 nm was determined. The microscope was equipped with a motorized stage and also interfaced with a personal computer. This facilitated the computer-controlled movement of the stage with fluorescence measurements at 25 points (500 µm steps) on each dural sample. The mean and standard deviation of the measurements was determined by the computer.
The extravasation induced by the electrical stimulation of the trigeminal ganglion was an ipsilateral effect (i.e. occurs only on the side of the dura in which the trigeminal ganglion was stimulated). This allows the other (unstimulated) half of the dura to be used as a control. The ratio of the amount of extravasation in the dura from the stimulated side compared to the unstimulated side dura was calculated. Saline controls yielded a ratio of approximately 2.0 in rats and 1.8 in guinea pigs. […]

Compound | Inhibition of Protein Extravasation i.v. ID50 [mmol/kg]
O=C(O)C(=O)O.Oc1ccc2[nH]cc(C3CCNCC3)c2c1 [Compound III, 5-hydroxy-3-(4-piperidinyl)-1H-indole oxalate] | 8.9e-09
Cn1cc(CCN2CCC(c3c[nH]c4ccc(F)cc34)CC2)cn1 [Compound II, 5-fluoro-3-<1-<2-<1-methyl-1H-pyrazol-4-yl>ethyl>-4-piperidinyl>-1H-indole hydrochloride] | 8.6e-10
CCN(CC)C1CCc2cccc(Cl)c2C1.Cl (centres unmarked) [Compound IV, 8-chloro-2-diethylamino-1,2,3,4-tetrahydronaphthalene hydrochloride] | 1.2e-07
CNS(=O)(=O)Cc1ccc2[nH]cc(CCN(C)C)c2c1.O=C(O)CCC(=O)O [Compound I, 3-[2-(dimethylamino)ethyl]-N-methyl-1H-indole-5-methanesulfonamide butane-1,4-dioate (1:1)] | 2.6e-08
CN(C)C1CCc2[nH]c3ccc(O)cc3c2C1 (centres unmarked) [Compound V, 6-hydroxy-3-dimethylamino-1,2,3,4-tetrahydrocarbazole] | 8.7e-09

From patent EP0832650A2 (ELI LILLY AND COMPANY, priority 1996, dated 1998)
